Reference: ChEMBL document CHEMBL2417397, “Synthesis and biological properties of new N-Mannich bases derived from 3-methyl-3-phenyl- and 3,3-dimethyl-succinimides. Part V” (Eur J Med Chem, 2013)
Activity calls are given as the source filed them. The rule behind the calls is not given here.

Key:
Mus musculus [1] = species: Mus musculus; experiment: Protective index, ratio of TD50 for CF-1 albino mouse by rotarod test to ED50 for CF-1 albino mouse; type: functional
Vibrio harveyi [2] = experiment: Induction of mutagenecity in Vibrio harveyi BB7M; type: organism-based; conditions: in vivo
Vibrio harveyi [3] = experiment: Antimutagenic activity in Vibrio harveyi BB7XM assessed as inhibition of 4-nitroquinoline-N-oxide-induced mutation; type: functional
Vibrio harveyi [4] = experiment: Induction of mutagenecity in Vibrio harveyi BB7X; type: organism-based; conditions: in vivo
Vibrio harveyi [5] = experiment: Antimutagenic activity in Vibrio harveyi BB7M assessed as inhibition of 4-nitroquinoline-N-oxide-induced mutation; type: functional
Mus musculus [6] = experiment: Anticonvulsant activity in CF-1 albino mouse assessed as protection against 6 Hz psychomotor seizure at 100 mg/kg, ip after 0.25 hrs; type: functional
Mus musculus [7] = experiment: Anticonvulsant activity in CF-1 albino mouse assessed as protection against 6 Hz psychomotor seizure at 100 mg/kg, ip after 2 hrs; type: functional
[8] = target: Sodium channel protein type 2 subunit alpha (Homo sapiens) (UniProt Q99250); experiment: Inhibition of NaV1.2 channel (unknown origin) at 1 uM by electrophysiology
Chain of Sodium channel protein type 2 subunit alpha (Homo sapiens) (Q99250 whole entry, looked up): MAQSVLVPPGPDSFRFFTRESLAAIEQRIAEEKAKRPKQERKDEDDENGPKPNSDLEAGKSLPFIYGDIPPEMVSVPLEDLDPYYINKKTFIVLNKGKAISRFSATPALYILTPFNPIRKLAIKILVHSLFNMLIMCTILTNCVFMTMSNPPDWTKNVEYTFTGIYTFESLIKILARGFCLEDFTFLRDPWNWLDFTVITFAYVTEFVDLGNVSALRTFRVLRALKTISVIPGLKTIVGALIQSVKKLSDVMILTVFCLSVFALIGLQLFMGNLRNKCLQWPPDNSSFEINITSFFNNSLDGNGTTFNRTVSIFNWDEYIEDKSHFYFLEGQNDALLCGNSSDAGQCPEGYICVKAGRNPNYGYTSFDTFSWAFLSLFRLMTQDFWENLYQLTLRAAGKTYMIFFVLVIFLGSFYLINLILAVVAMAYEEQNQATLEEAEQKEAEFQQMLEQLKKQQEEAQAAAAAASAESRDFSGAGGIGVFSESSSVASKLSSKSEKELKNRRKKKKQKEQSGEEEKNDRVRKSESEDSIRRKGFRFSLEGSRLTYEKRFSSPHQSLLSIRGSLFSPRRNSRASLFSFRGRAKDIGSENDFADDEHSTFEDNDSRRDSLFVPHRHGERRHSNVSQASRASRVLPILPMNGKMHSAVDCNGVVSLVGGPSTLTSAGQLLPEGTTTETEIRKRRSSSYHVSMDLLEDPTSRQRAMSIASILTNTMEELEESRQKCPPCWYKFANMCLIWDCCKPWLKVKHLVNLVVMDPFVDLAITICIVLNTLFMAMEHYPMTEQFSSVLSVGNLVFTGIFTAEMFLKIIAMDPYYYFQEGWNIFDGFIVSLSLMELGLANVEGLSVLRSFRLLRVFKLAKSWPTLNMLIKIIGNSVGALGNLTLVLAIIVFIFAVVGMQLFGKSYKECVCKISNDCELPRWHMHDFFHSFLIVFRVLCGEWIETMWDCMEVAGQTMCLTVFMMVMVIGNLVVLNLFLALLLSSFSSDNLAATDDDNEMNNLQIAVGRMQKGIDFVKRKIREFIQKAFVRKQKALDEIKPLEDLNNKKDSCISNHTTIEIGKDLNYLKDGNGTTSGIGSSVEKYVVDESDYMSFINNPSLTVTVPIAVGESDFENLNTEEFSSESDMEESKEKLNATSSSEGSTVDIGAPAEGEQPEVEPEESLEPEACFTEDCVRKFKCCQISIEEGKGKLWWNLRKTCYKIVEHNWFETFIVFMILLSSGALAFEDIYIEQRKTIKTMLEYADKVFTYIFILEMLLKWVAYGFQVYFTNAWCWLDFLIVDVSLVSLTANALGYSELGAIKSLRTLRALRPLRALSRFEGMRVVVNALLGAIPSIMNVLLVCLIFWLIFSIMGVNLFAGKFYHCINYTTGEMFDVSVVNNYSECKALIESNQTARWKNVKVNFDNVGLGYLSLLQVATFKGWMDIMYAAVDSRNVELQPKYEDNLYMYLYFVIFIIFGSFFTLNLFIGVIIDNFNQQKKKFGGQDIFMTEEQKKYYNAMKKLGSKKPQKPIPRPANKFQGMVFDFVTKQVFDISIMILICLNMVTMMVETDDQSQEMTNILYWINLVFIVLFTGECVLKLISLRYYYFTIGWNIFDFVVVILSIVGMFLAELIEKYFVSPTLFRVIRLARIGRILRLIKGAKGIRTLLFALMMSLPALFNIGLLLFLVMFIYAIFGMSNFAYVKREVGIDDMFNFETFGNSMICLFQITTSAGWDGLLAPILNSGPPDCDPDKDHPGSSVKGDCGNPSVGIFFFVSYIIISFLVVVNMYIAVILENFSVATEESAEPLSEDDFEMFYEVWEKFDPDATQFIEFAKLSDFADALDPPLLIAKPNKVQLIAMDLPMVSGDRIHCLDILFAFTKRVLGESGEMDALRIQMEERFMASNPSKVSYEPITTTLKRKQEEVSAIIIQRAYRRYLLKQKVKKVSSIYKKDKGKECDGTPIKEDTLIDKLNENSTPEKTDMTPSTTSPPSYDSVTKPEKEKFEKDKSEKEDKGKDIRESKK

[9] = target: Sodium channel protein type 2 subunit alpha (Homo sapiens) (UniProt Q99250); experiment: Inhibition of NaV1.2 channel (unknown origin) at 10 uM by electrophysiology
Rattus norvegicus [10] = experiment: Neurotoxicity in Sprague-Dawley albino rat assessed as motor impairment at 30 mg/kg, po; type: toxicity, organism-based; parameters: dose 30 mg/kg, route oral; conditions: in vivo
Mus musculus [11] = experiment: Anticonvulsant activity in CF-1 albino mouse assessed as protection against 6 Hz psychomotor seizure at 100 mg/kg, ip after 4 hrs; type: functional
Mus musculus [12] = experiment: Anticonvulsant activity in CF-1 albino mouse assessed as protection against maximal electroshock-induced seizures at 300 mg/kg, ip after 0.5 hrs; type: functional, organism-based; parameters: dose 300 mg/kg
Mus musculus [13] = experiment: Anticonvulsant activity in CF-1 albino mouse assessed as protection against 6 Hz psychomotor seizure at 100 mg/kg, ip after 0.5 hrs; type: functional
Rattus norvegicus [14] = species: Rattus norvegicus; experiment: Ratio of phenytoin ED50 to compound ED50 for Sprague-Dawley albino rat; type: functional
Rattus norvegicus [15] = experiment: Anticonvulsant activity in Sprague-Dawley albino rat assessed as protection against maximal electroshock-induced seizures at 30 mg/kg, po after 4 hrs; type: functional
Rattus norvegicus [16] = experiment: Anticonvulsant activity in Sprague-Dawley albino rat assessed as protection against maximal electroshock-induced seizures at 30 mg/kg, po after 0.25 hrs; type: functional
Mus musculus [17] = experiment: Anticonvulsant activity in ip dosed CF-1 albino mouse assessed as protection against maximal electroshock-induced seizures after 4 hrs; type: functional
Mus musculus [18] = experiment: Neurotoxicity in CF-1 albino mouse at 300 mg/kg, ip after 0.5 hrs by rotarod test; type: toxicity, organism-based; parameters: dose 300 mg/kg, route intraperitoneal; conditions: in vivo
[19] = target: Sodium channel protein type 2 subunit alpha (Homo sapiens) (UniProt Q99250); experiment: Inhibition of NaV1.2 channel (unknown origin) at 100 uM by electrophysiology
Rattus norvegicus [20] = experiment: Anticonvulsant activity in Sprague-Dawley albino rat assessed as protection against maximal electroshock-induced seizures at 30 mg/kg, po after 2 hrs; type: functional
Mus musculus [21] = experiment: Anticonvulsant activity in ip dosed CF-1 albino mouse assessed as protection against maximal electroshock-induced seizures after 0.5 to 4 hrs; type: functional
[22] = target: Sodium channel protein type 2 subunit alpha (Homo sapiens) (UniProt Q99250); experiment: Inhibition of NaV1.2 channel (unknown origin) at 0.1 uM by electrophysiology
Rattus norvegicus [23] = experiment: Anticonvulsant activity in po dosed Sprague-Dawley albino rat assessed as protection against maximal electroshock-induced seizures after 0.25 to 4 hrs; type: functional
[24] = Neurotoxicity in po dosed Sprague-Dawley albino rat at 30 mg/kg, po after 0.25 to 4 hrs by rotarod test; type: toxicity, organism-based; parameters: dose 30 mg/kg, route oral; conditions: in vivo
Rattus norvegicus [25] = experiment: Anticonvulsant activity in Sprague-Dawley albino rat assessed as protection against maximal electroshock-induced seizures at 30 mg/kg, po after 0.5 hrs; type: functional
Rattus norvegicus [26] = experiment: Anticonvulsant activity in Sprague-Dawley albino rat assessed as protection against maximal electroshock-induced seizures at 30 mg/kg, po after 1 hr; type: functional
Rattus norvegicus [27] = species: Rattus norvegicus; experiment: Protective index, ratio of TD50 for Sprague-Dawley albino rat by rotarod test to ED50 for Sprague-Dawley albino rat; type: functional
Mus musculus [28] = experiment: Anticonvulsant activity in CF-1 albino mouse assessed as time of peak effect for protection against maximal electroshock-induced seizures at 30 to 300 mg/kg, ip; type: functional; conditions: dose mg/kg 30-300; route intraperitoneal
Vibrio harveyi [29] = experiment: Induction of mutagenecity in Vibrio harveyi BB7XM; type: organism-based; conditions: in vivo
Mus musculus [30] = experiment: Anticonvulsant activity in CF-1 albino mouse assessed as protection against 6 Hz psychomotor seizure at 100 mg/kg, ip after 1 hr; type: functional; conditions: route intraperitoneal
[31] = Neurotoxicity in ip dosed CF-1 albino mouse at 30 to 300 mg/kg, ip after 0.5 to 4 hrs; type: toxicity, organism-based; parameters: route intraperitoneal; conditions: CF-1, mouse, in vivo
Vibrio harveyi [32] = experiment: Induction of mutagenecity in Vibrio harveyi BB7; type: organism-based; conditions: in vivo
Vibrio harveyi [33] = experiment: Antimutagenic activity in Vibrio harveyi BB7X assessed as inhibition of 4-nitroquinoline-N-oxide-induced mutation; type: functional
[34] = Neurotoxicity in ip dosed CF-1 albino mouse after 4 hrs by rotarod test; type: toxicity, organism-based; conditions: CF-1, mouse, in vivo
Rattus norvegicus [35] = experiment: Anticonvulsant activity in Sprague-Dawley albino rat assessed as time of peak effect for protection against maximal electroshock-induced seizures at 30 mg/kg, po; type: functional
Vibrio harveyi [36] = experiment: Antimutagenic activity in Vibrio harveyi BB7 assessed as inhibition of 4-nitroquinoline-N-oxide-induced mutation; type: functional
[37] = Neurotoxicity in ip dosed CF-1 albino mouse after 0.5 hrs by rotarod test; type: toxicity, organism-based; conditions: CF-1, mouse, in vivo
Mus musculus [38] = experiment: Anticonvulsant activity in CF-1 albino mouse assessed as protection against 6 Hz psychomotor seizure at 100 mg/kg, ip after 0.25 to 4 hrs; type: functional; conditions: route intraperitoneal
Mus musculus [39] = experiment: Neurotoxicity in CF-1 albino mouse at 300 mg/kg, ip after 4 hrs by rotarod test; type: toxicity, organism-based; parameters: dose 300 mg/kg, route intraperitoneal; conditions: in vivo

Q: What does the source list for `CC1(c2ccccc2)CC(=O)N(CN2CCN(c3ccc(F)cc3)CC2)C1=O` (centres undefined)?
A: Ratio TD50/ED50 (Mus musculus [1]): 4.16; Activity (Vibrio harveyi [2]): Non-toxic; inhibition (INH) (Vibrio harveyi [3]): 49%; Activity (Vibrio harveyi [4]): Non-toxic; inhibition (INH) (Vibrio harveyi [5]): 62%; Activity (Mus musculus [6]; route intraperitoneal): 50%; Activity (Mus musculus [7]): Active; inhibition [8]: 14.9%; inhibition [9]: 26.8%; Activity (Rattus norvegicus [10]): Non-toxic; Activity (Mus musculus [11]): Active; Activity (Mus musculus [12]): inactive; Activity (Mus musculus [13]): inactive; Ratio ED50 (Rattus norvegicus [14]): 3.5; Activity (Rattus norvegicus [15]): 75%; Activity (Rattus norvegicus [16]): 25%; MED50 (Mus musculus [17]): 100 mg/kg; Activity (Mus musculus [18]): Non-toxic; inhibition [19]: 64%; Activity (Rattus norvegicus [20]): 75%; ED50 (Mus musculus [21]): 120 mg/kg; inhibition [22]: 10.6%; ED50 (Rattus norvegicus [23]): 7.78 mg/kg; TD50 [24]: 65.6 mg/kg; Activity (Rattus norvegicus [25]): 25%; Activity (Rattus norvegicus [26]): 50%; Ratio TD50/ED50 (Rattus norvegicus [27]): 8.43; Time (Mus musculus [28]): 8 h; Activity (Vibrio harveyi [29]): Non-toxic; Activity (Mus musculus [30]): 25%; TD50 [31]: > 500 mg/kg; Activity (Vibrio harveyi [32]): Non-toxic; inhibition (INH) (Vibrio harveyi [33]): 0%; TD50 at 4 h [34]: 300 mg/kg; Time (Rattus norvegicus [35]): 4 h; inhibition (INH) (Vibrio harveyi [36]): 8%

Q: For `CC1(c2ccccc2)CC(=O)N(CN2CCN(c3ccc(Cl)c(Cl)c3)CC2)C1=O` (centres undefined), which “Ratio TD50/ED50” value (Mus musculus [1]) is on record?
A: Its value is >13.41.

Q: What about the Activity (Vibrio harveyi [2]) of the same compound?
A: Its Activity is “Toxic”.

Q: What about the Activity (Vibrio harveyi [4]) of the same compound?
A: The Activity was “Non-toxic”.

Q: And the TD50 at 0.5 h [37]?
A: The TD50 at 0.5 h was 300 mg/kg.

Q: And the Activity (Mus musculus [6]; route intraperitoneal)?
A: The Activity was 25%.

Q: What about the Activity (Mus musculus [38]) of the same compound?
A: The Activity was 50%.

Q: What about the Activity (Mus musculus [7]) of the same compound?
A: Its Activity is “inactive”.

Q: And the inhibition [8]?
A: The inhibition was 15.1%.

Q: What about the inhibition [9] of the same compound?
A: Its inhibition is 58.6%.

Q: What about the Activity (Rattus norvegicus [10]) of the same compound?
A: The Activity was “Non-toxic”.

Q: What about the Activity (Mus musculus [11]) of the same compound?
A: Its Activity is “inactive”.

Q: What about the Activity (Mus musculus [12]) of the same compound?
A: The Activity was “inactive”.

Q: What about the Activity (Mus musculus [13]) of the same compound?
A: Its Activity is “inactive”.

Q: And the Activity (Rattus norvegicus [15])?
A: Its Activity is “Active”.

Q: And the Activity (Rattus norvegicus [16])?
A: Its Activity is “inactive”.

Q: What about the Activity (Mus musculus [39]) of the same compound?
A: Its Activity is “Non-toxic”.

Q: What about the MED50 (Mus musculus [17]) of the same compound?
A: Its MED50 is 30 mg/kg.

Q: And the inhibition [19]?
A: Its inhibition is 96.7%.

Q: And the Activity (Rattus norvegicus [20])?
A: The Activity was 50%.

Q: What about the ED50 (Mus musculus [21]) of the same compound?
A: Its ED50 is 37.3 mg/kg.

Q: And the inhibition [22]?
A: The inhibition was 3.08%.

Q: And the ED50 (Rattus norvegicus [23])?
A: The ED50 was 15.1 mg/kg.

Q: What about the TD50 [24] of the same compound?
A: The TD50 was 168 mg/kg.

Q: What about the Activity (Rattus norvegicus [25]) of the same compound?
A: Its Activity is “inactive”.

Q: And the Activity (Rattus norvegicus [26])?
A: Its Activity is “inactive”.

Q: What about the “Ratio TD50/ED50” value (Rattus norvegicus [27]) of the same compound?
A: The value was 11.09.

Q: And the Time (Mus musculus [28])?
A: The Time was 4 h.

Q: And the Activity (Vibrio harveyi [29])?
A: The Activity was “Toxic”.

Q: What about the Activity (Mus musculus [30]) of the same compound?
A: The Activity was 25%.

Q: And the TD50 [31]?
A: The TD50 was > 500 mg/kg.

Q: What about the Activity (Vibrio harveyi [32]) of the same compound?
A: The Activity was “Non-toxic”.

Q: What about the Time (Rattus norvegicus [35]) of the same compound?
A: The Time was 4 h.

Q: What does the source list for `CC1(c2ccccc2)CC(=O)N(CN2CCN(c3cccc(Cl)c3)CC2)C1=O` (centres undefined)?
A: Ratio TD50/ED50 (Mus musculus [1]): 12.08; Activity (Vibrio harveyi [2]): Non-toxic; inhibition (INH) (Vibrio harveyi [3]): 57%; Activity (Vibrio harveyi [4]): Non-toxic; TD50 at 0.5 h [37]: 300 mg/kg; inhibition (INH) (Vibrio harveyi [5]): 61%; Activity (Mus musculus [6]): inactive; Activity (Mus musculus [38]): 50%; Activity (Mus musculus [7]; route intraperitoneal): 50%; inhibition [8]: 7.76%; inhibition [9]: 39.6%; Activity (Rattus norvegicus [10]): Non-toxic; Activity (Mus musculus [11]; route intraperitoneal): 25%; Activity (Mus musculus [12]): inactive; Activity (Mus musculus [13]; route intraperitoneal): 25%; Activity (Rattus norvegicus [15]): 50%; Activity (Rattus norvegicus [16]): inactive; Activity (Mus musculus [39]): Non-toxic; MED50 (Mus musculus [17]): 30 mg/kg; inhibition [19]: 86.9%; Activity (Rattus norvegicus [20]): Active; ED50 (Mus musculus [21]): 41.1 mg/kg; inhibition [22]: 16.3%; ED50 (Rattus norvegicus [23]): 27.9 mg/kg; TD50 [24]: > 250 mg/kg; Activity (Rattus norvegicus [25]): 25%; Activity (Rattus norvegicus [26]): 25%; Ratio TD50/ED50 (Rattus norvegicus [27]): >8.95; Time (Mus musculus [28]): 6 h; Activity (Vibrio harveyi [29]): Non-toxic; Activity (Mus musculus [30]): 50%; TD50 [31]: 496 mg/kg; Activity (Vibrio harveyi [32]): Non-toxic; inhibition (INH) (Vibrio harveyi [33]): 0%; Time (Rattus norvegicus [35]): 2 h; inhibition (INH) (Vibrio harveyi [36]): 25%
